# Reference: patent US8741944B2, “Anti-infective agents against intracellular pathogens” (priority 2007, dated 2014)
# Like-named read-outs stand apart in the source and are kept apart here.
# Key:
# HT29 (Colon Cancer) = test: NCI DTP tumor cell line screen (SRB), HT29
# Protocol: (§1) For a typical screening experiment, cells are inoculated into 96 well microtiter plates in 100 μL at plating densities ranging from 5,000 to 40,000 cells/well depending on the doubling time of individual cell lines. After cell inoculation, the microtiter plates are incubated at 37° C., 5% CO2, 95% air and 100% relative humidity for 24 h prior to addition of experimental drugs.
# (§2) After 24 h, two plates of each cell line are fixed in situ with TCA, to represent a measurement of the cell population for each cell line at the time of drug addition (Tz). Experimental drugs are solubilized in dimethyl sulfoxide at 400-fold the desired final maximum test concentration and stored frozen prior to use. At the time of drug addition, an aliquot of frozen concentrate is thawed and diluted to twice the desired final maximum test concentration with complete medium containing 50 μg/ml gentamicin. Additional four, 10-fold or ½ log serial dilutions are made to provide a total of five drug concentrations plus control. Aliquots of 100 μl of these different drug dilutions are added to the appropriate microtiter wells already containing 100 μl of medium, resulting in the required final drug concentrations.
# (§3) Following drug addition, the plates are incubated for an additional 48 h at 37° C., 5% CO2, 95% air, and 100% relative humidity. For adherent cells, the assay is terminated by the addition of cold TCA. Cells are fixed in situ by the gentle addition of 50 μl of cold 50% (w/v) TCA (final concentration, 10% TCA) and incubated for 60 minutes at 4° C. The supernatant is discarded, and the plates are washed five times with tap water and air dried. Sulforhodamine B (SRB) solution (1001) at 0.4% (w/v) in 1% acetic acid is added to each well, and plates are incubated for 10 minutes at room temperature. After staining, unbound dye is removed by washing five times with 1% acetic acid and the plates are air dried. Bound stain is subsequently solubilized with 10 mM trizma base, and the absorbance is read on an automated plate reader at a wavelength of 515 nm. For suspension cells, the methodology is the same except that the assay is terminated by fixing settled cells at the bottom of the wells by gently adding 50 μl of 80% TCA (final concentration, 16% TCA). Using the seven absorbance measurements [time zero, (Tz), control growth, (C), and test growth in the presence of drug at the five concentration levels (Ti)], the percentage growth is calculated at each of the drug concentrations levels. Percentage growth inhibition is calculated as: [(Ti−Tz)/(C−Tz)]×100 for concentrations for which Ti>/=Tz [(Ti−Tz)/Tz]×100 for concentrations for which Ti<Tz
# (§4) Three dose response parameters are calculated for each experimental agent. […] The drug concentration resulting in total growth inhibition (TGI) is calculated from Ti=Tz. […] Values are calculated for each of these three parameters if the level of activity is reached; however, if the effect is not reached or is exceeded, the value for that parameter is expressed as greater or less than the maximum or minimum concentration tested.
# KM12 (Colon Cancer) = test: NCI DTP tumor cell line screen (SRB), KM12
# Protocol: as §1, §2, §3, §4
# TK-10 (Renal Cancer) = test: NCI DTP tumor cell line screen (SRB), TK-10
# Protocol: as §1, §2, §3, §4
# MOLT-4 (Leukemia) = test: NCI DTP tumor cell line screen (SRB), MOLT-4
# Protocol: as §1, §2, §3, §4
# [1] = tested on: HOP-92 (Non-Small Cell Lung Cancer); test: NCI DTP tumor cell line screen (SRB), HOP-92
# Protocol: as §1, §2, §3, §4
# DU-145 (Prostate Cancer) = test: NCI DTP tumor cell line screen (SRB), DU-145
# Protocol: as §1, §2, §3, §4
# OVCAR-4 (Ovarian Cancer) = test: NCI DTP tumor cell line screen (SRB), OVCAR-4
# Protocol: as §1, §2, §3, §4
# OVCAR-5 (Ovarian Cancer) = test: NCI DTP tumor cell line screen (SRB), OVCAR-5
# Protocol: as §1, §2, §3, §4
# HS 578T (Breast Cancer) = test: NCI DTP tumor cell line screen (SRB), HS 578T
# Protocol: as §1, §2, §3, §4
# CCRF-CEM (Leukemia) = test: NCI DTP tumor cell line screen (SRB), CCRF-CEM
# Protocol: as §1, §2, §3, §4
# [2] = tested on: NCI-H460 (Non-Small Cell Lung Cancer)
# Protocol: as §1, §2, §3, §4
# COLO 205 (Colon Cancer) = test: NCI DTP tumor cell line screen (SRB), COLO 205
# Protocol: as §1, §2, §3, §4
# MALME-3M (Melanoma) = test: NCI DTP tumor cell line screen (SRB), MALME-3M
# Protocol: as §1, §2, §3, §4
# SK-MEL-5 (Melanoma) = test: NCI DTP tumor cell line screen (SRB), SK-MEL-5
# Protocol: as §1, §2, §3, §4
# RPMI-8226 (Leukemia) = test: NCI DTP tumor cell line screen (SRB), RPMI-8226
# Protocol: as §1, §2, §3, §4
# [3] = tested on: MDA-MB-231/ATCC (Breast Cancer); test: NCI DTP tumor cell line screen (SRB), MDA-MB-231/ATCC
# Protocol: as §1, §2, §3, §4
substance,measurement,setting,value
4-[5-(2-Phenanthrenyl)-3-(trifluoromethyl)-1H-pyrazol-1-yl]-phenyl -guanidine [Compound 71],GI50,HT29 (Colon Cancer),1500 nM
same,TGI,HT29 (Colon Cancer),2.83E−06
same,Percent Growth,HT29 (Colon Cancer); Log10 Concentration −4.0,−99%
same,Percent Growth,HT29 (Colon Cancer); Log10 Concentration −5.0,−100%
same,Percent Growth,HT29 (Colon Cancer); Log10 Concentration −6.0,82%
same,Percent Growth,HT29 (Colon Cancer); Log10 Concentration −7.0,91%
same,Percent Growth,HT29 (Colon Cancer); Log10 Concentration −8.0,95%
same,GI50,KM12 (Colon Cancer),1590 nM
same,TGI,KM12 (Colon Cancer),2.97E−06
same,Percent Growth,KM12 (Colon Cancer); Log10 Concentration −4.0,−43%
same,Percent Growth,KM12 (Colon Cancer); Log10 Concentration −5.0,−98%
same,Percent Growth,KM12 (Colon Cancer); Log10 Concentration −7.0,91%
same,Percent Growth,KM12 (Colon Cancer); Log10 Concentration −8.0,94%
same,GI50,TK-10 (Renal Cancer),1320 nM
same,TGI,TK-10 (Renal Cancer),2.59E−06
same,Percent Growth,TK-10 (Renal Cancer); Log10 Concentration −4.0,−64%
same,Percent Growth,TK-10 (Renal Cancer); Log10 Concentration −5.0,−100%
same,Percent Growth,TK-10 (Renal Cancer); Log10 Concentration −6.0,71%
same,Percent Growth,TK-10 (Renal Cancer); Log10 Concentration −7.0,90%
same,Percent Growth,TK-10 (Renal Cancer); Log10 Concentration −8.0,78%
same,GI50,MOLT-4 (Leukemia),233 nM
same,TGI,MOLT-4 (Leukemia),1.98E−06
same,Percent Growth,MOLT-4 (Leukemia); Log10 Concentration −6.0,23%
same,Percent Growth,MOLT-4 (Leukemia); Log10 Concentration −7.0,66%
same,GI50,[1],1010 nM
same,TGI,[1],2.26E−06
same,Percent Growth,[1]; Log10 Concentration −4.0,−28%
same,Percent Growth,[1]; Log10 Concentration −5.0,−92%
same,Percent Growth,[1]; Log10 Concentration −6.0,50%
same,Percent Growth,[1]; Log10 Concentration −7.0,82%
same,GI50,DU-145 (Prostate Cancer),1550 nM
same,TGI,DU-145 (Prostate Cancer),2.89E−06
same,Percent Growth,DU-145 (Prostate Cancer); Log10 Concentration −4.0,−100%
same,Percent Growth,DU-145 (Prostate Cancer); Log10 Concentration −5.0,−100%
same,Percent Growth,DU-145 (Prostate Cancer); Log10 Concentration −6.0,85%
same,Percent Growth,DU-145 (Prostate Cancer); Log10 Concentration −8.0,72%
same,GI50,OVCAR-4 (Ovarian Cancer),1310 nM
same,TGI,OVCAR-4 (Ovarian Cancer),2.58E−06
same,Percent Growth,OVCAR-4 (Ovarian Cancer); Log10 Concentration −4.0,−66%
same,Percent Growth,OVCAR-4 (Ovarian Cancer); Log10 Concentration −5.0,−100%
same,Percent Growth,OVCAR-4 (Ovarian Cancer); Log10 Concentration −6.0,70%
same,Percent Growth,OVCAR-4 (Ovarian Cancer); Log10 Concentration −7.0,79%
same,GI50,OVCAR-5 (Ovarian Cancer),1730 nM
same,TGI,OVCAR-5 (Ovarian Cancer),3.11E−06
same,Percent Growth,OVCAR-5 (Ovarian Cancer); Log10 Concentration −4.0,−8%
same,Percent Growth,OVCAR-5 (Ovarian Cancer); Log10 Concentration −5.0,−100%
same,Percent Growth,OVCAR-5 (Ovarian Cancer); Log10 Concentration −6.0,97%
same,Percent Growth,OVCAR-5 (Ovarian Cancer); Log10 Concentration −8.0,95%
same,GI50,HS 578T (Breast Cancer),1860 nM
same,TGI,HS 578T (Breast Cancer),3.78E−06
same,Percent Growth,HS 578T (Breast Cancer); Log10 Concentration −4.0,−38%
same,Percent Growth,HS 578T (Breast Cancer); Log10 Concentration −5.0,−69%
same,Percent Growth,HS 578T (Breast Cancer); Log10 Concentration −6.0,94%
same,Percent Growth,HS 578T (Breast Cancer); Log10 Concentration −7.0,100%
same,GI50,CCRF-CEM (Leukemia),1230 nM
same,TGI,CCRF-CEM (Leukemia),2.48E−06
same,Percent Growth,CCRF-CEM (Leukemia); Log10 Concentration −4.0,−53%
same,Percent Growth,CCRF-CEM (Leukemia); Log10 Concentration −5.0,−99%
same,Percent Growth,CCRF-CEM (Leukemia); Log10 Concentration −6.0,65%
same,Percent Growth,CCRF-CEM (Leukemia); Log10 Concentration −7.0,79%
same,Percent Growth,CCRF-CEM (Leukemia); Log10 Concentration −8.0,78%
same,GI50,[2],1640 nM
same,TGI,[2],3.04E−06
same,Percent Growth,[2]; Log10 Concentration −4.0,−20%
same,Percent Growth,[2]; Log10 Concentration −5.0,−97%
same,Percent Growth,[2]; Log10 Concentration −6.0,90%
same,Percent Growth,[2]; Log10 Concentration −7.0,91%
same,Percent Growth,[2]; Log10 Concentration −8.0,91%
same,GI50,COLO 205 (Colon Cancer),1360 nM
same,TGI,COLO 205 (Colon Cancer),2.69E−06
same,Percent Growth,COLO 205 (Colon Cancer); Log10 Concentration −4.0,−32%
same,Percent Growth,COLO 205 (Colon Cancer); Log10 Concentration −6.0,73%
same,Percent Growth,COLO 205 (Colon Cancer); Log10 Concentration −7.0,83%
same,Percent Growth,COLO 205 (Colon Cancer); Log10 Concentration −8.0,95%
same,GI50,MALME-3M (Melanoma),1010 nM
same,TGI,MALME-3M (Melanoma),2.33E−06
same,Percent Growth,MALME-3M (Melanoma); Log10 Concentration −4.0,−50%
same,Percent Growth,MALME-3M (Melanoma); Log10 Concentration −6.0,50%
same,Percent Growth,MALME-3M (Melanoma); Log10 Concentration −8.0,52%
same,GI50,SK-MEL-5 (Melanoma),2220 nM
same,TGI,SK-MEL-5 (Melanoma),4.07E−06
same,Percent Growth,SK-MEL-5 (Melanoma); Log10 Concentration −4.0,−34%
same,Percent Growth,SK-MEL-5 (Melanoma); Log10 Concentration −6.0,116%
same,Percent Growth,SK-MEL-5 (Melanoma); Log10 Concentration −7.0,111%
same,Percent Growth,SK-MEL-5 (Melanoma); Log10 Concentration −8.0,97%
same,GI50,RPMI-8226 (Leukemia),1030 nM
same,TGI,RPMI-8226 (Leukemia),2.25E−06
same,Percent Growth,RPMI-8226 (Leukemia); Log10 Concentration −4.0,−47%
same,Percent Growth,RPMI-8226 (Leukemia); Log10 Concentration −5.0,−95%
same,Percent Growth,RPMI-8226 (Leukemia); Log10 Concentration −6.0,52%
same,Percent Growth,RPMI-8226 (Leukemia); Log10 Concentration −7.0,65%
same,Percent Growth,RPMI-8226 (Leukemia); Log10 Concentration −8.0,58%
same,TGI,[3],1.66E−06
same,Percent Growth,[3]; Log10 Concentration −4.0,−39%
same,Percent Growth,[3]; Log10 Concentration −5.0,−98%
same,Percent Growth,[3]; Log10 Concentration −6.0,27%
same,Percent Growth,[3]; Log10 Concentration −7.0,78%
same,Percent Growth,[3]; Log10 Concentration −8.0,47%
